Assay results: patent US20220017566A1, “TERPINOID DERIVATIVES AND USES THEREOF” (SICHUAN HAISCO PHARMACEUTICAL CO., LTD., priority 2018, published 2022)
Where two headings read alike, the source gives them in different places.

Legend:
[1] = Pharmacokinetic studies in Sprague Dawley rats (oral gavage and IV); assay type: in vivo; settings: rat, male SD rats, plasma; for AUC(0-t): read-out: AUC0-24 h; for bioavailability: oral 5 mg/kg vs IV 1 mg/kg, read-out: Bioavailibility F %
Experimental: The pharmacokinetics of test compounds was evaluated in male SD rats when administered via oral gavage and IV injection. For oral dosing, compound was formulated in 0.5% methylcellulose and administered at doses of 5 mg/kg (3 rats per dose level) and volume of 10 mL/kg. For IV dosing, compound was formulated in 5% DMSO/5% Solutol/90% saline and administered to 3 rats at a dose of 1 mg/kg and a volume of 5 mL/kg. The rats were fasted overnight before administration. Plasma samples were collected predose and at 0.5, 1, 3, 6, 9, 12, and 24 hours postdose. The samples were analyzed by LC/MS/MS and the concentration of test compound at each timepoint was determined by linear regression. Pharmacokinetic parameters were calculated from the plasma concentrations using Pheonix WinNonlin.

CYP2C19 = molecular target: T1, CYP2C19 (Homo sapiens, UniProt P33261); assay: CYP450 enzyme inhibition in liver microsomes (cocktail probe incubation); assay type: in vitro ADME; settings: species not given, 0.05-50 μM tested
T1 construct: studied in liver microsomes of CD-1 mouse, Sprague Dawley rat, Beagle dog, cynomolgus monkey, and human; from tissue; host or cells: liver microsomes
T1 sequence (P33261 whole entry): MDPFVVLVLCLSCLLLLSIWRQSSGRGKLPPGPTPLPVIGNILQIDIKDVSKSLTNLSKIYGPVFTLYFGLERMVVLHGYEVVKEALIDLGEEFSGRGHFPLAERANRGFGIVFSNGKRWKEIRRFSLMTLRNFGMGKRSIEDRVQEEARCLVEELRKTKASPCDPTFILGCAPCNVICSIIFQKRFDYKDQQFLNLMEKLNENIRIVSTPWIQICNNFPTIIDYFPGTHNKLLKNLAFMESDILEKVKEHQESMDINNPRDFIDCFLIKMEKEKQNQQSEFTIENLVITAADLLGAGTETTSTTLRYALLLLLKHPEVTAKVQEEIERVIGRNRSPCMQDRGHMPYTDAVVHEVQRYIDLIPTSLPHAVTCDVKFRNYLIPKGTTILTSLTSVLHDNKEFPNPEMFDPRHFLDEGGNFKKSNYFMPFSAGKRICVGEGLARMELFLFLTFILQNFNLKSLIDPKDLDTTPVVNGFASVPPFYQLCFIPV
Experimental: (§1) The inhibition potential of test compounds towards major drug metabolizing CYP450 enzymes was studied in liver microsomes of CD-1 mouse, Sprague Dawley rat, Beagle dog, cynomolgus monkey, and human. The inhibition of CYP1A2, CYP2C9, CYP2C19, CYP2D6, and CYP3A4 was assessed using CYP450 specific probe reactions in a cocktail incubation. Seven concentrations of test compounds (0.05, 0.15, 0.5, 1.5, 5, 15, and 50 μM) were evaluated. In addition, known inhibitors for each probe reaction were included as positive controls and incubated at a single concentration above their respective IC50.

CYP2C9 = molecular target: T2, CYP2C9 (Homo sapiens, UniProt P11712); assay: as above; assay type: in vitro ADME; settings: species not given, 0.05-50 μM tested
T2 construct: studied in liver microsomes of CD-1 mouse, Sprague Dawley rat, Beagle dog, cynomolgus monkey, and human; from tissue; host or cells: liver microsomes
T2 sequence (P11712 whole entry): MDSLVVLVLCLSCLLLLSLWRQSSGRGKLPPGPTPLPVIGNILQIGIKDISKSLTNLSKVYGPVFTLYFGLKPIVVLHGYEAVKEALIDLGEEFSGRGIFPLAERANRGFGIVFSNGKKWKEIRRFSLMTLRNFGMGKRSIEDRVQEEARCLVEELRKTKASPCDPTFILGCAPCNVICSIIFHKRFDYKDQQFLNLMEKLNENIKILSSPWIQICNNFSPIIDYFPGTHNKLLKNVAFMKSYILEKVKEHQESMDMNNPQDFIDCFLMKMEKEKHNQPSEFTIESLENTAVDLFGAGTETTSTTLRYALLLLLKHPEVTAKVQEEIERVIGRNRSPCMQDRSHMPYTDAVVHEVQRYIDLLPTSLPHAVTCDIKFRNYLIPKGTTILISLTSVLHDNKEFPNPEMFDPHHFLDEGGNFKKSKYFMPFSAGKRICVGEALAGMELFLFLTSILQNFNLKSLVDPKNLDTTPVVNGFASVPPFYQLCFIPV
Experimental: as §1

CYP1A2 = molecular target: T3, CYP1A2 (Homo sapiens, UniProt P05177); assay: as above; assay type: in vitro ADME; settings: species not given, 0.05-50 μM tested
T3 construct: studied in liver microsomes of CD-1 mouse, Sprague Dawley rat, Beagle dog, cynomolgus monkey, and human; from tissue; host or cells: liver microsomes
T3 sequence (P05177 1-516): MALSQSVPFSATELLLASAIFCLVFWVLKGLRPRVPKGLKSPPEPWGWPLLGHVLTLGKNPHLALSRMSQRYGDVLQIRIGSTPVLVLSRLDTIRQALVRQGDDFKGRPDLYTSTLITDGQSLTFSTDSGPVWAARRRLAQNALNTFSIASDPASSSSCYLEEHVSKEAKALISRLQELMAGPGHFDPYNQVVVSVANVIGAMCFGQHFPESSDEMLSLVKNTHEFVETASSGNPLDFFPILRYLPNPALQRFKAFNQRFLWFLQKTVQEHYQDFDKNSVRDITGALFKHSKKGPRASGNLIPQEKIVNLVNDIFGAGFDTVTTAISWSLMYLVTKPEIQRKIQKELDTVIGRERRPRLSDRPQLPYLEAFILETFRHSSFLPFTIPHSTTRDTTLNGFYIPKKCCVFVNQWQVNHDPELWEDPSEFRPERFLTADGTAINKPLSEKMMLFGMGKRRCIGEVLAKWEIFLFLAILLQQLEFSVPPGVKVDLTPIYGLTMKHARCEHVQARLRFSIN
Experimental: as §1

CYP2D6 = molecular target: T4, CYP2D6 (Homo sapiens, UniProt P10635); assay: as above; assay type: in vitro ADME; settings: species not given, 0.05-50 μM tested
T4 construct: studied in liver microsomes of CD-1 mouse, Sprague Dawley rat, Beagle dog, cynomolgus monkey, and human; from tissue; host or cells: liver microsomes
T4 sequence (P10635 whole entry): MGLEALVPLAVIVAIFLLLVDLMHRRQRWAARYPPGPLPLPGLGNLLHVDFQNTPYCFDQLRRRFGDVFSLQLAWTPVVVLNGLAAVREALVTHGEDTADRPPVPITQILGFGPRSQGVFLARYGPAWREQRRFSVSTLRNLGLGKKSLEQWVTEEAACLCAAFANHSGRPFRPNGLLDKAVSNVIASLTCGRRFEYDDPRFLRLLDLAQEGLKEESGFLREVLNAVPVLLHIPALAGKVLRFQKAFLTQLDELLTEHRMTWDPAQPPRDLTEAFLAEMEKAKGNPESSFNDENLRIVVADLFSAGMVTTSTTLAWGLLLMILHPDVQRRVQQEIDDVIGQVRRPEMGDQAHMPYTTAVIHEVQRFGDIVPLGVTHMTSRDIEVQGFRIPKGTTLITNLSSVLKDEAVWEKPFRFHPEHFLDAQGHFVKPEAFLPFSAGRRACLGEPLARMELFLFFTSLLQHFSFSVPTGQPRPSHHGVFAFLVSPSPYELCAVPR
Experimental: as §1

CYP3A4 = molecular target: T5, CYP3A4 (Homo sapiens, UniProt P08684); assay: as above; assay type: in vitro ADME; settings: species not given, 0.05-50 μM tested
T5 construct: studied in liver microsomes of CD-1 mouse, Sprague Dawley rat, Beagle dog, cynomolgus monkey, and human; from tissue; host or cells: liver microsomes
T5 sequence (P08684 whole entry): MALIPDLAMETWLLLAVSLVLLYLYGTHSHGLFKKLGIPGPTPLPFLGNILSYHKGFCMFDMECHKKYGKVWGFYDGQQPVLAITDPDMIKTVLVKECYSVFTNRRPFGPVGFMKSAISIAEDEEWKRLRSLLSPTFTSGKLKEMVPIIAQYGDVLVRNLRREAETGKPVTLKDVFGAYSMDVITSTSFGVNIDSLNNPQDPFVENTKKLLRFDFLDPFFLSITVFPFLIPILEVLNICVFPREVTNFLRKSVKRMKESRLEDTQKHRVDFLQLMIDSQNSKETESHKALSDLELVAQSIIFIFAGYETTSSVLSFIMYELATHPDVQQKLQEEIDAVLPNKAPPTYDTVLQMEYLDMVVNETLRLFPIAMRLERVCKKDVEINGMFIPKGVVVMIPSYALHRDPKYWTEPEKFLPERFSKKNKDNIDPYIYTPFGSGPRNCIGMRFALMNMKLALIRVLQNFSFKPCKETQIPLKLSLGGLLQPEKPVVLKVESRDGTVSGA
Experimental: as §1

[2] = system: IFNγ-induced NO production in Raw 264.7 cells; assay: Nitric oxide assay: suppression of IFNγ-induced NO production (Griess nitrite, adjusted to live cell numbers); assay type: cell-based; settings: Mus musculus, RAW264.7, 2 h pretreatment, IFNγ 10 ng/ml for 24 hours
Experimental: Raw 264.7 cells were seeded in 96-well plates at a density of 30, 000 cells per well in DMEM+10% FBS and incubated overnight. The next day, cell media was replaced by DMEM+2% FBS. Cells were pretreated with DMSO or test compounds (top dose 100 nM, 1:4 serial dilution, 10-point) for 2 hours and then treated with recombinant mouse IFNγ (R&D, Cat# 485-MI-100) at a final concentration of 10 ng/ml for 24 hours. Nitrite levels were measured in culture media as a surrogate for nitric oxide using the Griess Reagent System (Promega, Cat# G2930). Cell viability was determined using CellTiter Glo reagents (Promega, Cat#G7572). The nitrite levels were adjusted to live cell numbers and inhibition percentage was calculated. The inhibition percentage was then plotted against compound concentration, and IC50 values were calculated using four-parameter algorithm in Graphpad Prism.

[3] = Metabolic stability in dog liver microsomes; assay type: in vitro ADME; settings: Beagle
Experimental: (§2) The metabolic stability of test compounds was examined in CD-1 mouse, Sprague Dawley rat, Beagle dog, cynomolgus monkey, and human liver microsomes. Test compound (final concentration 1 μM) was mixed with diluted liver microsomes from each of the 5 species and a small aliquot was taken at 0, 5, 10, 20, 30, and 60 minutes for LC/MS/MS analysis. Intrinsic clearance and half-life were calculated.

[4] = Metabolic stability in mouse liver microsomes; assay type: in vitro ADME, CD-1 mouse; settings: CD-1
Experimental: as §2

[5] = Metabolic stability in monkey liver microsomes; assay type: in vitro ADME, cynomolgus monkey
Experimental: as §2

[6] = Metabolic stability in human liver microsomes; assay type: in vitro ADME
Experimental: as §2

[7] = Metabolic stability in rat liver microsomes; assay type: in vitro ADME; settings: Sprague Dawley
Experimental: as §2

SMILES	C0 ([1]; IV (1 mg/kg)) [ng/mL]	clearance ([1]; IV (1 mg/kg)) [mL/min/kg]	half-life ([1]; IV (1 mg/kg)) [h]	AUC(0-t) ([1]; IV (1 mg/kg)) [ng·h/mL]	Cmax ([1]; Oral (5 mg/kg)) [ng/mL]	half-life ([1]; Oral (5 mg/kg)) [h]	AUC(0-t) ([1]; Oral (5 mg/kg)) [ng·h/mL]	bioavailability [1] [%]	IC50 (CYP2C19) [µM]	IC50 (CYP2C9) [µM]	IC50 (CYP1A2) [µM]	IC50 (CYP2D6) [µM]	IC50 (CYP3A4) [µM]	IC50 [2] [µM]	further results
CC1(C)C(=O)C(C#N)=C[C@]2(C)C3=CC(=O)[C@@H]4[C@@H]5C[C@@](C)(N6CCOC6=O)CC[C@]5(C)CC[C@@]4(C)[C@]3(C)CC[C@@H]12 [Example 13, (4aR,6aS,6bR,8aS,11S,12aS,12bR,14bS)-4,4,6a,6b,8a,11,14b-heptamethyl-3,13-dioxo-11-(2-oxooxazolidin-3-yl)-3,4,4a,5,6,6a,6b,7,8,8a,9,10,11,12,12a,12b,13,14b-octadecahydropicene-2-carbonitrile]	355	78.9	2.2	206	45	2.1	197	19.2	11.7	1.9	> 50	> 50	1.9	< 0.01	
CC1(C)C(=O)C(C#N)=C[C@]2(C)C3=CC(=O)[C@@H]4[C@@H]5C[C@@](C)(Cc6nnco6)CC[C@]5(C)CC[C@@]4(C)[C@]3(C)CC[C@@H]12 [Example 14, (4aR,6aS,6bR,8aR,11S,12aS,12bR,14bS)-11-((1,3,4-oxadiazol-2-yl)methyl)-4,4,6a,6b,8a,11,14b-heptamethyl-3,13-dioxo-3,4,4a,5,6,6a,6b,7,8,8a,9,10,11,12,12a,12b,13,14b-octadecahydropicene-2-carbonitrile]									6.2	3	> 50	10.3	1	< 0.01	CLint scaled at 1 μM [3]: 228 mL/min/kg; half-life at 1 μM [3]: 0.147 h; CLint scaled at 1 μM [4]: 1460 mL/min/kg; half-life at 1 μM [4]: 0.0633 h; CLint scaled at 1 μM [5]: 602 mL/min/kg; half-life at 1 μM [5]: 3.1 min; CLint scaled at 1 μM [6]: 87.9 mL/min/kg; half-life at 1 μM [6]: 0.237 h; CLint scaled at 1 μM [7]: 695 mL/min/kg; half-life at 1 μM [7]: 0.06 h
CC1(C)C(=O)C(C#N)=C[C@]2(C)C3=CC(=O)[C@@H]4[C@@H]5C[C@@](C)(N6CCCC6=O)CC[C@]5(C)CC[C@@]4(C)[C@]3(C)CC[C@@H]12 [Example 12, (4aR,6aS,6bR,8aS,11S,12aS,12bR,14bS)-4,4,6a,6b,8a,11,14b-heptamethyl-3,13-dioxo-11-(2-oxopyrrolidin-1-yl)-3,4,4a,5,6,6a,6b,7,8,8a,9,10,11,12,12a,12b,13,14b-octadecahydropicene-2-carbonitrile]	359	85.7	1.7	191	29	4.1	94	9.9	9.7	2.7	> 50	> 50	2.8	< 0.01	
CC1(C)C(=O)C(C#N)=C[C@]2(C)C3=CC(=O)[C@@H]4[C@@H]5C[C@@](C)(c6nnco6)CC[C@]5(C)CC[C@@]4(C)[C@]3(C)CC[C@@H]12 [Example 9, (4aR,6aS,6bR,8aS,11S,12aS,12bR,14bS)-4,4,6a,6b,8a,11,14b-heptamethyl-11-(1,3,4-oxadiazol-2-yl)-3,13-dioxo-3,4,4a,5,6,6a,6b,7,8,8a,9,10,11,12,12a,12b,13,14b-octadecahydropicene-2-carbonitrile]	427	56	1.5	301	143	2.2	333	22.1	13.3	3.1	> 50	28.7	0.3	< 0.01	CLint scaled at 1 μM [3]: 104 mL/min/kg; half-life at 1 μM [3]: 0.318 h; CLint scaled at 1 μM [4]: 186 mL/min/kg; half-life at 1 μM [4]: 0.492 h; CLint scaled at 1 μM [5]: 270 mL/min/kg; half-life at 1 μM [5]: 6.9 min; CLint scaled at 1 μM [6]: 94 mL/min/kg; half-life at 1 μM [6]: 0.222 h; CLint scaled at 1 μM [7]: 72.1 mL/min/kg; half-life at 1 μM [7]: 0.577 h

Further lines, with some results ahead:

C0 ([1]; IV (1 mg/kg)) [ng/mL]	clearance ([1]; IV (1 mg/kg)) [mL/min/kg]	half-life ([1]; IV (1 mg/kg)) [h]	AUC(0-t) ([1]; IV (1 mg/kg)) [ng·h/mL]	Cmax ([1]; Oral (5 mg/kg)) [ng/mL]	half-life ([1]; Oral (5 mg/kg)) [h]	AUC(0-t) ([1]; Oral (5 mg/kg)) [ng·h/mL]	bioavailability [1] [%]	IC50 (CYP2C19) [µM]	IC50 (CYP2C9) [µM]	IC50 (CYP1A2) [µM]	IC50 (CYP2D6) [µM]	IC50 (CYP3A4) [µM]	IC50 [2] [µM]	SMILES	further results
703	32.5	1.8	496	63	4.5	364	14.7	5.8	1.2	> 50	8.4	2.1	< 0.01	CC1(C)C(=O)C(C#N)=C[C@]2(C)C3=CC(=O)[C@@H]4[C@@H]5C[C@@](C)(c6nnc(C(=O)NC7CC7)o6)CC[C@]5(C)CC[C@@]4(C)[C@]3(C)CC[C@@H]12 [Example 19, 5-((2S,4aS,6aR,6bS,8aR,12aS,14aR,14bS)-11-cyano-2,4a,6a,6b,9,9,12a-heptamethyl-10,14-dioxo-1,2,3,4,4a,5,6,6a,6b,7,8,8a,9,10,12a,14,14a,14b-octadecahydropicen-2-yl)-N-cyclopropyl-1,3,4-oxadiazole-2-carboxamide]	
380	47	2.8	329	89	1.7	412	25	13.6	2.6	> 50	36.2	1.6	< 0.01	Cc1noc([C@@]2(C)CC[C@]3(C)CC[C@]4(C)[C@H](C(=O)C=C5[C@@]6(C)C=C(C#N)C(=O)C(C)(C)[C@@H]6CC[C@]54C)[C@@H]3C2)n1 [Example 15, (4aR,6aS,6bR,8aS,11S,12aS,12bR,14bS)-4,4,6a,6b,8a,11,14b-heptamethyl-11-(3-methyl-1,2,4-oxadiazol-5-yl)-3,13-dioxo-3,4,4a,5,6,6a,6b,7,8,8a,9,10,11,12,12a,12b,13,14b-octadecahydropicene-2-carbonitrile]	
472	62.5	1.4	267	50	2.3	181	13.6	19.6	4.7	> 50	> 50	2.1	< 0.01	CC1(C)C(=O)C(C#N)=C[C@]2(C)C3=CC(=O)[C@@H]4[C@@H]5C[C@@](C)(N6C(=O)CCC6=O)CC[C@]5(C)CC[C@@]4(C)[C@]3(C)CC[C@@H]12 [Example 18, (4aR,6aS,6bR,8aS,11S,12aS,12bR,14bS)-11-(2,5-dioxopyrrolidin-1-yl)-4,4,6a,6b,8a,11,14b-heptamethyl-3,13-dioxo-3,4,4a,5,6,6a,6b,7,8,8a,9,10,11,12,12a,12b,13,14b-octadecahydropicene-2-carbonitrile]	
